According to patent US10111854B2, “Synthesis and use of amine-containing flavonoids as potent anti-leishmanial agents” (The Hong Kong Polytechnic University, priority 2014, dated 2018):

Key:
[1] = tested on: L. amazonensis LV78 promastigotes; assay: Anti-promastigote activity (MTS assay), L. amazonensis LV78; assay type: cell-based; details: 72 hours
Method in brief: (§1)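 Promastigotes (1×10^5 per well) in Schneider's medium pH 6.9 with 10% FBS, exposed to serial compound concentrations for 72 h at 27 °C. Viability by MTS/PMS reduction over 4 h, OD 490 nm; IC50 derived.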

[2] = tested on: L. major FV1 promastigotes; assay: Anti-promastigote activity (MTS assay), L. major FV1; assay type: cell-based; details: 72 hours
Method in brief: as §1

[3] = tested on: L. donovani HU3 promastigotes; assay: Anti-promastigote activity (MTS assay), L. donovani HU3; assay type: cell-based; details: 72 hours
Method in brief: as §1

[4] = tested on: L. donovani Ld39 promastigotes; assay: Anti-promastigote activity (MTS assay), L. donovani Ld39; assay type: cell-based; details: 72 hours
Method in brief: as §1

RAW264.7 cells [5] = assay: Cytotoxicity, RAW264.7 macrophages; assay type: cell-based; details: murine macrophages RAW264.7
Experimental: Promastigotes of visceral L. donovani Ld39 and LdHU3, and cutaneous L. amazonensis LV78, L. braziliensis UA847 and L. major FV1 were employed in the study. All strains were cultured in Schneider's Drosophila Medium (Invitrogen), pH 6.9 supplemented with 10% (v/v) heat inactivated fetal bovine serum (Hyclone) with 4 mM glutamine (Sigma) and 25 μg/mL gentamicin solution (Invitrogen) at 27° C. for 4 days. RAW264.7 cells were cultured in supplemented DMEM media with 10% heat inactivated FBS and 100 U/mL penicillin and 100 μg/mL of streptomycin. They were maintained at 37° C. in a humidified atmosphere with 5% CO2. The cells were split constantly after a confluent monolayer has been formed. The cells were harvested by a cell scraper.
IC50 values of known antileishmanials and the amine-containing flavonoid monomers of the present invention to promastigotes (L. amazonensis LV78, L major FV1, L. donovani HU3, L. donovani 39), macrophages (Raw 264.7 and PEM) and mouse fibroblast (L929) were determined. The anti-promastigotes activities and cytotoxicity of the amine-containing flavonoid monomers of the invention are shown in Table 1.

[6] = tested on: peritoneal elicited macrophages (PEM); assay: Cytotoxicity, peritoneal elicited macrophages (PEM); assay type: cell-based, mouse; details: peritoneal elicited macrophages; read-out: Cytotoxicity IC50, PEM
[7] = tested on: L. amazonensis LV78 amastigotes; assay: Anti-amastigote activity in infected PEM, L. amazonensis LV78; assay type: cell-based; details: infected PEM, 3 days, Giemsa
Method in brief: (§2)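 Mouse peritoneal elicited macrophages were infected with late-log promastigotes (20:1, overnight or 24 hr, 37° C). Infected cells were then exposed to compound for 72 hours at 37° C. Giemsa-stained amastigotes per 100 macrophages, plus percentage of infected macrophages, were counted, and IC50 values were derived.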

[8] = tested on: L. braziliensis UA847 amastigotes; assay: Anti-amastigote activity in infected PEM, L. braziliensis UA847; assay type: cell-based; details: 3 days, Giemsa, read-out: Anti-amastigote activity IC50, L. baziliensis UA847
Experimental: Mouse peritoneal elicited macrophages (PEM) were obtained as previously described (2). A round cover slip (12 mm in diameter) was placed into each well of 24-well culture plate. Mouse PEM were resuspended in supplemented DMEM media containing 10% heat inactivated FBS (v/v), 100 U/mL penicillin and 100 μg/mL streptomycin and seeded into each well at a cell density of 1×10^5 cells per 500 μL. Macrophages were allowed to attach overnight. Non-adherent cells were removed by gentle washing with un-supplemented DMEM media twice. Adherent macrophages were infected with late-log promastigotes at a parasite-to-macrophage ratio of 20:1 overnight at 37° C. with 5% CO2. Non-internalized promastigotes were removed by washing twice with un-supplemented DMEM media. Infected macrophages were further incubated in 500 μL of supplemented DMEM media in the presence or absence of FM for 72 hours at 37° C. After incubation, cover slips were stained with Giemsa and the percentage of macrophages infected and number of amastigotes per 100 macrophages was enumerated.
PEM cells were infected with late-log promastigotes (L. amazonensis LV78, L. braziliensis UA847, L. donovani HU3, L. donovani 39) for 24 hr at 37° C. Infected macrophages were then treated with various antileishmanials and incubated for 3 days at 37° C. After 3 days, the cover slips were stained with Giemsa. The number of amastigotes per 100 macrophages were determined and used to calculate IC50 values.

[9] = tested on: L. donovani Ld39 amastigotes (SSG-resistant); assay: Anti-amastigote activity in infected PEM, L. donovani Ld39; assay type: cell-based; details: infected PEM, 3 days, Giemsa; SSG-resistant
Method in brief: as §2

RAW264.7 cells [10] = assay: Reactive oxygen species (ROS) level, DCFDA, RAW264.7; assay type: cell-based, murine
Experimental: (§3) 50,000 RAW264.7 were seeded in each well of black 96-well plates overnight. Next day, RAW264.7 cells were pre-loaded with 10 μM dichlorofluorescein diacetate (DCFDA) (Abcam) for 1 hr at 37° C. with 5% CO2. A control of non-DCFDA stained cells was also included. The DCFDA-contained supplemented DMEM media was removed. The cells were re-suspended with 10 μM or 30 μM of respective tested compounds and positive control, tert-butyl hydroperoxide. In Leishmania, 1×10^7 promastigotes were also pre-loaded with 10 μM DCFDA at 27° C. for 1 hr. After removing the DCFDA-contained media, the promastigotes were seeded into black 96-well plate and incubated with 30 μM of respective compounds or positive control. The ROS level was determined at different periods of time including 2, 4, 6, 8, 20, 46 and 72 hr using microplate reader (excitation: 485 nm and emission: […]).
(§4) The ROS levels in both macrophage RAW264.7 and L. amazonensis promastigotes was measured by dichlorofluorescein diacetate (DCFDA) dye which is permeable to the cells. With oxidative stress, DCFDA would be oxidized to fluorescent DCF which is an indicator of intracellular ROS level. RAW cells or L. amazonensis promastigotes were pre-loaded with 10 μM of DCFDA for 1 hr, washed and exposed to 39, FM09, pentamidine and amphotericin B for different period of time (2, 4, 6, 8, 20, 46 and 72 hr). The fluorescence level was measured at the 520 nm using 485 nm as an excitation wavelength. 0.1% DMSO or 0.3% DMSO was used as a solvent control. The fluorescent value has been subtracted from non-DCFDA stained cells. The values were presented as mean±standard error of mean.

[11] = tested on: L. amazonensis LV78 promastigotes; assay: Reactive oxygen species (ROS) level, DCFDA, promastigotes; assay type: cell-based; details: 30 μM
Experimental: as §3, §4

For C[C@@H]1[C@H](O)[C@@H](C)/C=C/C=C/C=C/C=C/C=C/C=C/C=C/[C@H](O[C@@H]2O[C@H](C)[C@@H](O)[C@H](N)[C@@H]2O)C[C@@H]2O[C@](O)(C[C@@H](O)C[C@@H](O)[C@H](O)CC[C@@H](O)C[C@@H](O)CC(=O)O[C@H]1C)C[C@H](O)[C@H]2C(=O)O [Amphotericin B], the IC50 [1] was 240 ± 30 nM, the IC50 [2] was 290 ± 50 nM and the IC50 [3] was 200 nM. It also gave an IC50 [4] of 95 ± 20 nM, an IC50 (RAW264.7 cells [5]) of 12000 ± 2500 nM and an IC50 [6] of 7400 ± 400 nM. For the same molecule, the IC50 [7] was 55 ± 29 nM, the IC50 [8] was 49 ± 10 nM and the IC50 [9] was 62 nM. For the same molecule, the “RAW264.7 ROS Level, Relative fold (RF)” value (RAW264.7 cells [10]; 10 μM, 2 hr) was 1.4 fold, the “RAW264.7 ROS Level, Relative fold (RF)” value (RAW264.7 cells [10]; 10 μM, 4 hr) was 1.4 fold and the “RAW264.7 ROS Level, Relative fold (RF)” value (RAW264.7 cells [10]; 10 μM, 6 hr) was 1.4 fold. For the same molecule, the “RAW264.7 ROS Level, Relative fold (RF)” value (RAW264.7 cells [10]; 10 μM, 8 hr) was 1.2 fold, the “RAW264.7 ROS Level, Relative fold (RF)” value (RAW264.7 cells [10]; 10 μM, 20 hr) was 1.0 fold and the “ROS induction in macrophages” value (RAW264.7 cells [10]; 10 μM, RAW264.7) was “No ROS induction”. For the same molecule, the “RAW264.7 ROS Level, Relative fold (RF)” value (RAW264.7 cells [10]; 30 μM, 2 hr) was 1.6 fold, the “RAW264.7 ROS Level, Relative fold (RF)” value (RAW264.7 cells [10]; 30 μM, 4 hr) was 1.6 fold and the “RAW264.7 ROS Level, Relative fold (RF)” value (RAW264.7 cells [10]; 30 μM, 6 hr) was 1.5 fold. For the same molecule, the “RAW264.7 ROS Level, Relative fold (RF)” value (RAW264.7 cells [10]; 30 μM, 20 hr) was 1.3 fold, the “RAW264.7 ROS Level, Relative fold (RF)” value (RAW264.7 cells [10]; 30 μM, 46 hr) was 1.3 fold and the “L. amazon LV78 promastigote ROS Level, Relative fold (RF)” value ([11]; 2 hr) was 4.5 fold. For the same molecule, the “L. amazon LV78 promastigote ROS Level, Relative fold (RF)” value ([11]; 4 hr) was 5.6 fold, the “L. amazon LV78 promastigote ROS Level, Relative fold (RF)” value ([11]; 6 hr) was 7.5 fold and the “L. amazon LV78 promastigote ROS Level, Relative fold (RF)” value ([11]; 20 hr) was 21 fold. The “L. amazon LV78 promastigote ROS Level, Relative fold (RF)” value ([11]; 46 hr) was 27.1 fold and the “L. amazon LV78 promastigote ROS Level, Relative fold (RF)” value ([11]; 72 hr) was 24.9 fold.
